Patent publication US10562912B2 (C&C Research Laboratories, priority 2013, dated 2020)

Legend:
Assay type in all cases: cell-based
STAT3 = target: T1, STAT3 (Homo sapiens, UniProt P40763); assay: STAT3 reporter gene assay (luciferase), LNCaP stable cell line (pSTAT3-TA-luc), IL-6 stimulation
T1 construct: plasmid pSTAT3-TA-luc), which contains a stably operating STAT3 promoter; endogenous in cells
Outline: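 Cytotoxicity was run on a duplicate plate with CellTiter-Glo, while the other plate gave luciferase read-outs from lysed LNCaP pSTAT3-TA-luc reporter cells. Cells were treated with graded compound concentrations plus IL-6 (10 ng/mL final) for 24–48 h in 3% DCC-FBS medium. Unstimulated and stimulated wells served as negative and positive controls.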

HEL92.1.7 = assay: Cell growth inhibition assay, blood cancer cell line HEL92.1.7; conditions: Homo sapiens, HEL 92.1.7, HEL92.1.7 blood cancer cell line
Outline: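 Cells were seeded at 3,000/well (HCT116, DU-145) or 5,000/well (SW626 and the others) and exposed to serial compound dilutions for 72 to 96 h at 37 °C under 5% CO2. Viability was read as CellTiter-Glo luminescence against 0.1% DMSO and cell-free wells.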

LNCaP = assay: Cell growth inhibition assay, prostate cancer cell line LNCaP (medium with 10 ng/mL IL-6); conditions: Homo sapiens, medium supplemented with 10 ng/mL of IL-6, 10,000 cells/well
DU-145 = assay: Cell growth inhibition assay, prostate cancer cell line DU-145; conditions: Homo sapiens, DU-145 prostate cancer cell line
Outline: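 Luminescent CellTiter-Glo readout of viable cells after 72–96 h compound exposure (37° C., 5% CO2). Seeding: 3,000 cells/well for DU-145 and HCT116, 5,000 cells/well for SW626. Controls were medium without cells and 0.1% DMSO vehicle.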

T1 sequence (P40763 whole entry): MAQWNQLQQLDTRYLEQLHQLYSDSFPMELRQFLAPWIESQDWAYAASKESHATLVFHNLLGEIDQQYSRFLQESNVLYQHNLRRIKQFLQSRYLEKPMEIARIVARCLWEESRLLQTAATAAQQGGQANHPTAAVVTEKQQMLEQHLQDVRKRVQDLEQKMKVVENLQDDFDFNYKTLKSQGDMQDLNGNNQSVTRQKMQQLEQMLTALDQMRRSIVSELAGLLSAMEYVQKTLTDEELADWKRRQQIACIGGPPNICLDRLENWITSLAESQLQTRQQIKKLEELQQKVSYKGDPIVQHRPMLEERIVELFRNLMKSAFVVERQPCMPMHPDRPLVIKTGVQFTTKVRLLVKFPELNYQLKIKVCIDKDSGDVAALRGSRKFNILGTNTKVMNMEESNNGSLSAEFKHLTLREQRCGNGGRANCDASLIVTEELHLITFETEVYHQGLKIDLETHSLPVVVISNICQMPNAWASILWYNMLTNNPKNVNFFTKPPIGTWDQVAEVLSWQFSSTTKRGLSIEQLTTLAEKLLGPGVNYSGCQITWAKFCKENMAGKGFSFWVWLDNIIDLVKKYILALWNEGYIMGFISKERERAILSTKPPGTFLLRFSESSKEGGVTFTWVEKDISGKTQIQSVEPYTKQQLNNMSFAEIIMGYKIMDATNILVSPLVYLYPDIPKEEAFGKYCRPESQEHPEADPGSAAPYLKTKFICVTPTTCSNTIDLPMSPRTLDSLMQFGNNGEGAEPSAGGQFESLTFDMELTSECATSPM

| SMILES | IC50 (STAT3) | IC50 (HEL92.1.7) | IC50 (LNCaP) | IC50 (DU-145) |
| --- | --- | --- | --- | --- |
| CC(C)Oc1cc(OC(F)(F)F)cc(C(C)(C)c2cc(Cl)cc(NC(=O)c3cc4cc(NS(=O)(=O)c5cnn(C)c5)ccc4s3)c2)c1 [Example 201, N-(3-chloro-5-(2-(3-isopropoxy-5-(trifluoromethoxy)phenyl)propan-2-yl)phenyl)-5-((1-methyl-1H-pyrazole)-4-sulfonamido)benzo[b]thiophene-2-carboxamide] | 0.029 µM | 0.053 µM | 0.064 µM | 0.018 µM |
| CCS(=O)(=O)Nc1ccc2sc(C(=O)Nc3cc(Cl)cc(C(C)(C)c4cc(OC(C)C)cc(OC(F)(F)F)c4)c3)cc2c1 [Example 202, N-(3-chloro-5-(2-(3-isopropoxy-5-(trifluoromethoxy)phenyl)propan-2-yl)phenyl)-5-(ethylsulfonamido)benzo[b]thiophene-2-carboxamide] | 0.007 µM | 0.013 µM | 0.014 µM | 0.007 µM |
| CC(C)Oc1cc(OC(F)(F)F)cc(C(C)(C)c2cc(Cl)cc(NC(=O)c3cc4cc(NS(=O)(=O)C(C)C)ccc4s3)c2)c1 [Example 203, N-(3-chloro-5-(2-(3-isopropoxy-5-(trifluoromethoxy)phenyl)propan-2-yl)phenyl)-5-((1-methylethyl)sulfonamido)benzo[b]thiophene-2-carboxamide] | 0.006 µM | 0.017 µM | 0.023 µM | 0.008 µM |
| CC(C)Oc1cc(OC(F)(F)F)cc(C(C)(C)c2cc(Cl)cc(NC(=O)c3cc4cc(NS(=O)(=O)C5CCOC5)ccc4s3)c2)c1 (stereo not drawn) [Example 204, N-(3-chloro-5-(2-(3-isopropoxy-5-(trifluoromethoxy)phenyl)propan-2-yl)phenyl)-5-((tetrahydrofuran)-3-sulfonamido)benzo[b]thiophene-2-carboxamide] | 0.051 µM | 0.05 µM | 0.095 µM | 0.017 µM |
| CC(C)Oc1cc(OC(F)(F)F)cc(C(C)(C)c2cc(Cl)cc(NC(=O)c3cc4cc(NS(=O)(=O)C5CCS(=O)(=O)CC5)ccc4s3)c2)c1 [Example 205, N-(3-chloro-5-(2-(3-isopropoxy-5-(trifluoromethoxy)phenyl)propan-2-yl)phenyl)-5-((1,1-dioxidotetrahydro-2H-thiopyran)-4-sulfonamido)benzo[b]thiophene-2-carboxamide] | 0.3 µM | 0.58 µM | 0.31 µM | 0.063 µM |
| CC(=O)N1CCC(S(=O)(=O)Nc2ccc3sc(C(=O)Nc4cc(Cl)cc(C(C)(C)c5cc(OC(C)C)cc(OC(F)(F)F)c5)c4)cc3c2)CC1 [Example 206, 5-((1-acetylpiperidine)-4-sulfonamido)-N-(3-chloro-5-(2-(3-isopropoxy-5-(trifluoromethoxy)phenyl)propan-2-yl)phenyl)benzo[b]thiophene-2-carboxamide] | 0.19 µM | 0.35 µM | 0.19 µM | 0.051 µM |
| C=CS(=O)(=O)Nc1ccc2sc(C(=O)Nc3cc(Cl)cc(C(C)(C)c4cc(OC(C)C)cc(OC(F)(F)F)c4)c3)cc2c1 [Example 207, N-(3-chloro-5-(2-(3-isopropoxy-5-(trifluoromethoxy)phenyl)propan-2-yl)phenyl)-5-(vinylsulfonamido)benzo[b]thiophene-2-carboxamide] | 3 µM | > 1.1 µM | > 1.1 µM | > 1.1 µM |
| CC(C)Oc1cc(OC(F)(F)F)cc(C(C)(C)c2cc(Cl)cc(NC(=O)c3cc4cc(NS(=O)(=O)CCN(C)C)ccc4s3)c2)c1 [Example 208, N-(3-chloro-5-(2-(3-isopropoxy-5-(trifluoromethoxy)phenyl)propan-2-yl)phenyl)-5-((2-(dimethylamino)ethyl)sulfonamido)benzo[b]thiophene-2-carboxamide] | 0.17 µM | 0.33 µM | 0.22 µM | 0.08 µM |
| CC(C)Oc1cc(OC(F)(F)F)cc(C(C)(C)c2cc(Cl)cc(NC(=O)c3cc4cc(NS(=O)(=O)CCN5CCOCC5)ccc4s3)c2)c1 [Example 209, N-(3-chloro-5-(2-(3-isopropoxy-5-(trifluoromethoxy)phenyl)propan-2-yl)phenyl)-5-((2-morpholinoethyl)sulfonamido)benzo[b]thiophene-2-carboxamide] | 0.043 µM | 0.099 µM | 0.053 µM | 0.027 µM |
| CC(C)Oc1cc(OC(F)(F)F)cc(C(C)(C)c2cc(Cl)cc(NC(=O)c3cc4cc(NS(=O)(=O)CCN(C)O)ccc4s3)c2)c1 [Example 210, N-(3-chloro-5-(2-(3-isopropoxy-5-(trifluoromethoxy)phenyl)propan-2-yl)phenyl)-5-((2-(hydroxy(methyl)amino)ethyl)sulfonamido)benzo[b]thiophene-2-carboxamide] | 0.14 µM | 0.57 µM | 0.28 µM | 0.073 µM |
| CC(C)Oc1cc(OC(F)(F)F)cc(C(C)(C)c2cc(Cl)cc(NC(=O)c3cc4cc(N5CCCCS5(=O)=O)ccc4s3)c2)c1 [Example 211, N-(3-chloro-5-(2-(3-isopropoxy-5-(trifluoromethoxy)phenyl)propan-2-yl)phenyl)-5-(1,1-dioxido-1,2-thiazinan-2-yl)benzo[b]thiophene-2-carboxamide] | 0.007 µM | 0.066 µM | 0.05 µM | 0.014 µM |
| CC(C)Oc1cc(OC(F)(F)F)cc(C(C)(C)c2cc(Cl)cc(NC(=O)c3cc4cc(N5CCCS5(=O)=O)ccc4s3)c2)c1 [Example 212, N-(3-chloro-5-(2-(3-isopropoxy-5-(trifluoromethoxy)phenyl)propan-2-yl)phenyl)-5-(1,1-dioxidoisothiazolidin-2-yl)benzo[b]thiophene-2-carboxamide] | 0.01 µM | 0.081 µM | 0.075 µM | 0.022 µM |
| CC(C)Oc1cc(OC(F)(F)F)cc(C(C)(C)c2cc(I)cc(NC(=O)c3sc4ccc(NS(C)(=O)=O)cc4c3I)c2)c1 [Example 214, 3-iodo-N-(3-iodo-5-(2-(3-isopropoxy-5-(trifluoromethoxy)phenyl)propan-2-yl)phenyl)-5-(methylsulfonamido)benzo[b]thiophene-2-carboxamide] | 0.17 µM | > 1.1 µM | 0.99 µM | 0.3 µM |
| CC(C)Oc1cc(OC(F)(F)F)cc(C(C)(C)c2cc(Cl)cc(NC(=O)c3cc4cc(N(C)S(C)(=O)=O)c(F)cc4s3)c2)c1 [Example 215, N-(3-chloro-5-(2-(3-isopropoxy-5-(trifluoromethoxy)phenyl)propan-2-yl)phenyl)-6-fluoro-5-(N-methylmethylsulfonamido)benzo[b]thiophene-2-carboxamide] | 0.002 µM | 0.007 µM | 0.006 µM | 0.002 µM |
| CC(C)Oc1cc(OC(F)(F)F)cc(C(C)(C)c2cc(Cl)cc(N(C)C(=O)c3cc4cc(N(C)S(C)(=O)=O)c(F)cc4s3)c2)c1 [Example 216, N-(3-chloro-5-(2-(3-isopropoxy-5-(trifluoromethoxy)phenyl)propan-2-yl)phenyl)-6-fluoro-N-methyl-5-(N-methylmethylsulfonamido)benzo[b]thiophene-2-carboxamide] | 0.38 µM | 0.95 µM | 1.1 µM | 0.3 µM |
